Laboratory results from ChEMBL document CHEMBL1151824, “Semisynthesis and biological activity of stemofoline alkaloids” (2009).
Values after ≈ are worked out from the molar mass of the structure shown.

Key:
Pseudomonas aeruginosa = assay: Antimicrobial activity against Pseudomonas aeruginosa ATCC 27853 after 24 hrs by broth dilution technique; format: functional
[1] = molecular target: Acetylcholinesterase (Homo sapiens) (UniProt P22303); assay: Inhibition of AChE assessed as white zone of inhibition after 20 mins by TLC bioautography
Sequence of Acetylcholinesterase (Homo sapiens) (P22303 whole entry): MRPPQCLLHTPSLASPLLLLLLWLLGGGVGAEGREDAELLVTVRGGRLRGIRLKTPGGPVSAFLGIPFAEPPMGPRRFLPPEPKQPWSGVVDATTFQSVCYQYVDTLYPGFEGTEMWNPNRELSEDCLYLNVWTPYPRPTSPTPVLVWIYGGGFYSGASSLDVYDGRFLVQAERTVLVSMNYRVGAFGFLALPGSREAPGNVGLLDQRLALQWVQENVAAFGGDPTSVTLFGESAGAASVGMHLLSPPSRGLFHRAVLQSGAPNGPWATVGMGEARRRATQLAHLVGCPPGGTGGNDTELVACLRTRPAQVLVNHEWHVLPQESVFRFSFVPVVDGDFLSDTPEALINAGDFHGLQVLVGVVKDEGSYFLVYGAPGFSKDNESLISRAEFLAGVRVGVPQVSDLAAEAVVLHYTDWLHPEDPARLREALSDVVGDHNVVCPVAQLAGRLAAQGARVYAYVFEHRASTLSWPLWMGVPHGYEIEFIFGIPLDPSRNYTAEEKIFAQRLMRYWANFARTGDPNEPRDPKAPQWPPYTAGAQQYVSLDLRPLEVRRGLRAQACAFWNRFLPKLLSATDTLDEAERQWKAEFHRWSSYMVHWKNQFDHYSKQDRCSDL

Staphylococcus aureus = assay: Antimicrobial activity against Staphylococcus aureus ATCC 25923 after 24 hrs by broth dilution technique; format: functional
Candida albicans = assay: Antimicrobial activity against Candida albicans ATCC 90028 after 24 hrs by broth dilution technique; format: functional; details: ATCC 90028, 24 h
[2] = Pseudomonas aeruginosa, ATCC 27853, 24 h, read-out: MIC

Compound	MIC (Pseudomonas aeruginosa; [2]) [µg/mL]	MIC [1]	MIC (Staphylococcus aureus; ATCC 25923, 24 h) [µg/mL]	MIC (Candida albicans) [µg/mL]	also measured
CC/C=C/C12C3CC4C5[C@@H](C)/C(=C6/OC(=O)C(C)=C6OC)O[C@]5(O3)C1CCN42 (stereo partly drawn)	≥ 125	1.3 ×10⁻² nmol			
CNC(=O)Oc1ccc2c(c1)[C@]1(C)CCN(C)[C@@H]1N2C		3.6 ×10⁻⁴ nmol			
COC1=C(C)C(=O)O/C1=C1\O[C@@]23O[C@H]4C[C@@H]([C@H]2[C@@H]1C)N1CC[C@H]3[C@@]41CC[C@@H](C)O (mixture of isomers)	62.5	2.5 ×10⁻¹ nmol	≥ 125	≥ 125	
COC1=C(C)C(=O)O/C1=C1\O[C@@]23O[C@H]4C[C@@H]([C@H]2[C@@H]1C)N1CC[C@H]3[C@@]41CCC(C)O (mixture of isomers)	≥ 125	2.5 ×10⁻² nmol	≥ 125	≥ 125	
COC1=C(C)C(=O)O/C1=C1\O[C@@]23O[C@H]4C[C@@H]([C@H]2[C@@H]1C)N1CC[C@H]3[C@@]41/C=C/C(C)O (mixture of isomers; 1)	62.5		≥ 125	≥ 125	
COC1=C(C)C(=O)O/C1=C1\O[C@@]23O[C@H]4C[C@@H]([C@H]2[C@@H]1C)N1CC[C@H]3[C@@]41/C=C/C(C)O (mixture of isomers; 2) [listing 1 of 2 here]					MIC (Pseudomonas aeruginosa): >=125 ug ml-1
COC1=C(C)C(=O)O/C1=C1\O[C@@]23O[C@H]4C[C@@H]([C@H]2[C@@H]1C)N1CC[C@H]3[C@@]41/C=C/C(C)O (mixture of isomers; 2) [listing 2 of 2 here]		2.5 ×10⁻¹ nmol			
COC1=C(C)C(=O)O/C1=C1\O[C@@]23O[C@H]4C[C@@H]([C@H]2[C@@H]1C)N1CC[C@H]3[C@@]41C (stereo in doubt; 3)		2.9 ×10⁻¹ nmol			
COC1=C(C)C(=O)O/C1=C1\O[C@@]23O[C@H]4C[C@@H]([C@H]2[C@@H]1C)N1CC[C@H]3[C@@]41C (stereo in doubt; 15) [METHYLSTEMOFOLINE]	≥ 125		≥ 125	≥ 125	
C[C@@H]1[C@H](O)[C@@H](C)/C=C/C=C/C=C/C=C/C=C/C=C/C=C/[C@H](O[C@@H]2O[C@H](C)[C@@H](O)[C@H](N)[C@@H]2O)C[C@@H]2O[C@](O)(C[C@@H](O)C[C@@H](O)[C@H](O)CC[C@@H](O)C[C@@H](O)CC(=O)O[C@H]1C)C[C@H](O)[C@H]2C(=O)O [AMPHOTERICIN B]				0.35 (≈ 0.379 µM)	
GENTAMICIN					MIC (Staphylococcus aureus): 1.41 µg/mL; MIC (Pseudomonas aeruginosa): 1.41 µg/mL
